Results from the supplement of paper PMC4862054.

Legend:
Experiment in all cases: normalised response (% of control), CellTox Green; higher = less cell death (100 = DMSO, 0 = benzethonium chloride kill control)
Settings in all cases: incubation time: 72 h
[1] = tested on: HCC1143
Method in brief: (§1)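 In 384-well plates holding compound at 5 concentrations in 10-fold steps over a 10,000-fold range specific to each compound, breast cancer cell lines were seeded as 20 µl suspension and incubated 72 h. CellTox Green fluorescence was measured at 485/520 nm, after which CellTiter-Glo luminescence was measured following 10 min at room temperature. Plate signals were normalised to 0.1 % DMSO (100) and a positive kill control (0), and each value is the normalised signal at a single concentration.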

[2] = tested on: MCF-10A
Method in brief: as §1

[3] = tested on: MDA-MB-436
Method in brief: as §1

[4] = tested on: MDA-MB-468
Method in brief: as §1

[5] = tested on: MFM-223
Method in brief: as §1

[6] = tested on: HDQ-P1
Method in brief: as §1

[7] = tested on: MDA-MB-231
Method in brief: as §1

Which results are given for `CN(C)CCOc1ccc(/C(=C(/CCCl)c2ccccc2)c2ccccc2)cc1` [Toremifene] (1000 nM)?
normalised response [1]: 118%; normalised response [2]: 108%; normalised response [3]: 70.4%; normalised response [4]: 101%; normalised response [5]: 92.4%

Which results are given for `O=P1(N(CCCl)CCCl)NCCCO1` (centres undefined) [Cyclophosphamide] (40000 nM)?
normalised response [1]: 71.3%; normalised response [6]: 107%; normalised response [2]: 76.1%; normalised response [7]: 102%; normalised response [3]: 105%; normalised response [5]: 102%

What does the source list for `COc1cc2/c(=N/c3ccc(Br)cc3F)nc[nH]c2cc1OCC1CCN(C)CC1` [Vandetanib] (1000 nM)?
normalised response [1]: 85.7%; normalised response [6]: 40.1%; normalised response [2]: 84%; normalised response [7]: 80.5%; normalised response [3]: 84.6%; normalised response [4]: 128%; normalised response [5]: 95%

Which results are given for `NC(=O)c1ccc(I)c([N+](=O)[O-])c1` [Iniparib] (1000 nM)?
normalised response [1]: 101%; normalised response [6]: 103%; normalised response [2]: 81.6%; normalised response [7]: 98.8%; normalised response [3]: 93.9%; normalised response [4]: 125%; normalised response [5]: 96.7%

`N#Cc1ccc(COC[C@H]2O[C@@H](n3c(NCc4ccc(Cl)c(Cl)c4)nc4c(N)ncnc43)[C@H](O)[C@@H]2O)cc1` (10000 nM) was tested. Which normalised response [1] did it give?
Its normalised response is 79.2%.

What about the normalised response [6] of the same molecule?
Its normalised response is 110%.

And the normalised response [2]?
Its normalised response is 103%.

And the normalised response [7]?
The normalised response was 105%.

What about the normalised response [3] of the same molecule?
The normalised response was 87.8%.

What about the normalised response [4] of the same molecule?
Its normalised response is 103%.

What about the normalised response [5] of the same molecule?
The normalised response was 2.84%.

Which results are given for `c1ccc2c(CCNc3ccc(Nc4ccncc4)cc3)c[nH]c2c1` [Serdemetan] (1000 nM)?
normalised response [6]: 99.7%; normalised response [2]: 96.9%; normalised response [7]: 93.9%; normalised response [3]: 81.8%; normalised response [4]: 12.4%; normalised response [5]: 97.8%

How did the normalised response [1] turn out when `Cc1ccc(NC(=O)c2ccc(CN3CCN(C)CC3)cc2)cc1Nc1nc(-c2cccnc2)cs1` [Masitinib] (10000 nM) was run?
Its normalised response is 96.5%.

And the normalised response [6]?
The normalised response was 106%.

And the normalised response [2]?
The normalised response was 90.8%.

What about the normalised response [7] of the same molecule?
Its normalised response is -12.8%.

And the normalised response [3]?
Its normalised response is 31.8%.

And the normalised response [4]?
Its normalised response is 37%.

What about the normalised response [5] of the same molecule?
The normalised response was 96.5%.

For `COCC[n+]1c2c(n(Cc3cnccn3)c1C)C(=O)c1ccccc1C2=O` [YM155] (1000 nM), which normalised response [1] is on record?
Its normalised response is 49.3%.

And the normalised response [6]?
The normalised response was -26.1%.

And the normalised response [2]?
Its normalised response is -47.8%.

What about the normalised response [7] of the same molecule?
The normalised response was -31.1%.

And the normalised response [3]?
The normalised response was -1.05%.

And the normalised response [4]?
The normalised response was -55.5%.

What about the normalised response [5] of the same molecule?
The normalised response was 55.1%.

How did the normalised response [1] turn out when `COCC1(CO)C(=O)C2CCN1CC2` (centres undefined) [Prima-1 Met] (1000 nM) was run?
Its normalised response is 114%.

What about the normalised response [6] of the same molecule?
Its normalised response is 101%.

What about the normalised response [2] of the same molecule?
The normalised response was 101%.

What about the normalised response [7] of the same molecule?
The normalised response was 98.3%.

And the normalised response [3]?
Its normalised response is 71%.

And the normalised response [4]?
Its normalised response is 103%.

And the normalised response [5]?
Its normalised response is 89.9%.

Which results are given for `Cc1[nH]c2ccccc2c1CCNCc1ccc(/C=C/C(=O)NO)cc1` [Panobinostat] (100 nM)?
normalised response [1]: 71.8%; normalised response [6]: 90%; normalised response [2]: 99.6%; normalised response [7]: -11.6%; normalised response [3]: 10.6%; normalised response [4]: 82.5%; normalised response [5]: 71.4%

What does the source list for `COc1cc(OC2CCN(C)CC2)ccc1Nc1ncc2c(n1)n(C1CCCC1)c(=O)n2C` [AZ 3146] (1000 nM)?
normalised response [1]: 87.6%; normalised response [6]: 99.6%; normalised response [2]: 99.3%; normalised response [3]: 86%; normalised response [4]: 88.7%; normalised response [5]: 101%

`COc1cc(OC2CCN(C)CC2)ccc1Nc1ncc2c(n1)n(C1CCCC1)c(=O)n2C` [AZ 3146] (10000 nM) was tested. Which normalised response [1] did it give?
Its normalised response is 86.7%.

What about the normalised response [6] of the same molecule?
Its normalised response is 86.1%.

And the normalised response [2]?
The normalised response was 71%.

And the normalised response [7]?
The normalised response was 81.8%.

What about the normalised response [3] of the same molecule?
Its normalised response is 47.3%.

And the normalised response [4]?
The normalised response was 75.5%.

What about the normalised response [5] of the same molecule?
Its normalised response is 104%.

For `O=C(Nc1cccnc1)N1CCC(Cc2cccc(Oc3ccc(C(F)(F)F)cn3)c2)CC1` [PF-3845] (1000 nM), which normalised response [1] is on record?
The normalised response was 97.7%.

And the normalised response [6]?
The normalised response was 70.8%.

What about the normalised response [2] of the same molecule?
Its normalised response is 115%.

What about the normalised response [7] of the same molecule?
The normalised response was 116%.

What about the normalised response [3] of the same molecule?
Its normalised response is 108%.

What about the normalised response [4] of the same molecule?
The normalised response was 132%.

What about the normalised response [5] of the same molecule?
Its normalised response is 102%.

What does the source list for `O=P1(N(CCCl)CCCl)NCCCO1` (centres undefined) [Cyclophosphamide] (4000 nM)?
normalised response [6]: 112%; normalised response [2]: 86.7%; normalised response [7]: 113%; normalised response [3]: 97.3%; normalised response [4]: 100%; normalised response [5]: 94.8%

`CN(C)CCOc1ccc(/C(=C(/CCCl)c2ccccc2)c2ccccc2)cc1` [Toremifene] (10000 nM) was tested. Which normalised response [6] did it give?
The normalised response was 103%.

What about the normalised response [2] of the same molecule?
Its normalised response is 69.2%.

What about the normalised response [7] of the same molecule?
The normalised response was 47.6%.

What about the normalised response [3] of the same molecule?
Its normalised response is 91.7%.

What about the normalised response [4] of the same molecule?
The normalised response was 9.03%.

And the normalised response [5]?
The normalised response was 94.7%.

`CC(C)C[C@@H](C(=O)N[C@H](C(=O)OC1CCCC1)c1ccccc1)[C@H](O)C(=O)NO` [Tosedostat] (10000 nM) was tested. Which normalised response [1] did it give?
Its normalised response is 30.3%.

What about the normalised response [6] of the same molecule?
The normalised response was 26%.

And the normalised response [2]?
The normalised response was 86.8%.

And the normalised response [7]?
Its normalised response is -8.96%.

What about the normalised response [3] of the same molecule?
Its normalised response is 70.6%.

And the normalised response [4]?
The normalised response was -9%.

And the normalised response [5]?
The normalised response was 98.5%.

`CN(C)c1nc(N(C)C)nc(N(C)C)n1` [Altretamine] (1000 nM) was tested. Which normalised response [1] did it give?
Its normalised response is 113%.

What about the normalised response [6] of the same molecule?
The normalised response was 69.2%.

What about the normalised response [2] of the same molecule?
The normalised response was 78%.

And the normalised response [7]?
Its normalised response is 110%.

What about the normalised response [3] of the same molecule?
Its normalised response is 80.3%.

And the normalised response [4]?
The normalised response was 140%.

And the normalised response [5]?
The normalised response was 99.7%.

Which results are given for `Cc1ccc(NC(=O)c2ccc(CN3CCN(C)CC3)cc2)cc1Nc1nc(-c2cccnc2)cs1` [Masitinib] (1000 nM)?
normalised response [1]: 99.5%; normalised response [6]: 89.1%; normalised response [2]: 103%; normalised response [7]: 114%; normalised response [3]: 68.7%; normalised response [4]: 177%; normalised response [5]: 89.7%
